Test results from patent US9238015B2 (NESTEC S.A., priority 2012, dated 2016).

Columns and labels:
AREc32 cells = assay: AREc32 cell viability (ATP quantification, Cell Titer-Glo); assay type: cell-based; settings: 24 h
Method: To determine the Nrf2 activation the samples were tested on AREc32 cells (seeded in 96 well plates) using 10 independent dilutions (1/2, 1/4, 1/6, 1/10, 1/15, 1/20, 1/25, 1/30, 1/40 and 1/50) and incubated for 24 hours at 37° C. in a 5% CO2/air incubator. The luciferase activity and the cell viability (ATP measurements) were determined using the Luciferase and Cell Titer-Glo kits from Promega.
The cell viability was also measured using a cell Titer-Glo kit (ATP quantification).

Nrf2 = Nrf2 reporter assay (AREc32 cells, ARE-luciferase); assay type: cell-based; settings: 24 h, dose range 0 to 200 μM (FIG. 3)
Method: Activation of Nrf2 was measured using an Nrf2 reporter assay. This assay is based on the AREc32 cell line, from CRX biosciences (Dundee, Scotland), a stably transfected MCF7 (breast adenocarcinoma) cell line that contains a luciferase gene construct under the control of the ARE. Luciferase is an enzyme which digests luciferin and produces […]. Anti-oxidative molecules such as Tert-butylhydroquinone (TBHQ) induce luciferase transcription via the activation of Nrf2 that binds to ARE. Luciferase activity is determined using a luciferase kit form Promega (Madison, Wis.). The luciferase activity is proportional to the activation of Nrf2. […] The luciferase activity and the cell viability (ATP measurements) were determined using the Luciferase and Cell Titer-Glo kits from Promega. For each run the luciferase activities, measured in Relative Light Units (RLU), of all the wells were normalized with the mean of the luciferase activity of the cells only of all the plates. Among all the samples tested the normalization procedure was found not to affect the data and this observation permits the comparison of samples measured in different runs. For each sample the Nrf2 activation was calculated as follows: […] […] The luciferase content per sample allows a semi quantification of the Nrf2 activation by reflecting the amount of the Nrf2 activating molecule. […]

NF-κB = NF-κB activity (SEAP and IL-8 production) in HT-29 clone 34 cells; assay type: cell-based, human
Method: Two in-vitro systems were used: human colonic cells (HT-29 clone 34) and human monocytes/macrophages (THP-1 blue cells). The human colonic adenocarcinoma HT-29 clone 34 cell line (passage 42-50) are adherent cells stably transfected with a NF-κB/SEAP reporter plasmid. They were cultured in DMEM high glucose (4.5 g/L) (Invitrogen) containing 1% of stable L-glutamine and supplemented with 10% of heat inactivated (one hour at 56° C.) Foetal Calf Serum (FCS) (Bioconcept, Allschwil, Switzerland), 1% of Penicillin/Streptomycin (Sigma) and 500 μg/ml of Geneticin (PAA, Pasching, Austria) at 37° C. in a 5% CO2/air incubator. Culture medium was renewed every two days until the cell monolayer reached ˜90% confluence. Cells were sub-cultured using 1× Trypsin/EDTA (Sigma). 10000 cells/well were seeded in 200 μl of culture medium in flat bottom white border 96 well plates (Greiner Bio One, Kremsmuenster, Austria). […] Cell culture supernatants were then collected for measurement of NF-κB activity (determination of secreted alkaline phosphatase and IL-8 production) using Phosphalight (Applied Biosystems) and IL-8 singleplex (Meso Scale, Gaithersburg, Md.) kits, respectively.

THP-1 blue cells = assay: THP-1 blue cell viability (Cell Titer-Glo); assay type: cell-based, human; settings: THP-1 blue cells (FIG. 6)
Method: 200000 cells/well were seeded in 100 μl of culture medium in 96 well flat bottom transparent plates. […] 20 μl of culture media containing (or not) LPS 055:B5 (Sigma) (100 ng/ml final) was added and the plates were incubated for 16 hours at 37° C. in a 5% CO2/air incubator.
Cell culture supernatants were carefully transferred to 96 well-plates for NF-κB activity measurement which is proportional to the level of secreted alkaline phosphatase. Briefly, 100 μl of supernatants were mixed with 150 μl of QuantiBlue (Invivogen) in a 96 well-plates incubated for 3 h at 37° C. before OD measurements at 620 nm with Sunrise microplate reader (Tecan, Mannedorf, Switzerland). Cell viability was determined using Cell Titer-Glo kit as described above.

HT-29 clone 34 cells = assay: HT-29 clone 34 cell viability (ATP, Cell Titer-Glo); assay type: cell-based, human; settings: HT-29 clone 34 cells (FIG. 5)
Method: 10000 cells/well were seeded in 200 μl of culture medium in flat bottom white border 96 well plates (Greiner Bio One, Kremsmuenster, Austria). […] 20 μl of experimental medium containing (or not) LPS 055:B5 or rhTNF-α (100 and 10 ng/ml final, respectively) was added and the plates were incubated for 24 hours at 37° C. in a 5% CO2/air incubator.
Cell viability was determined by measuring ATP using Cell Titer-Glo kit (Promega). Briefly, remaining adherent HT-29 clone 34 cells were incubated for 10 min at room temperature under horizontal shaking (250 rpm) with 120 μl of Cell Titer-Glo reagent (pre-diluted twice in 1×PBS) and the luminescence was measured using Polarstar microplate reader (BMG, Offenburg, Germany) for 1000 ms with a gain value set to 3500.

CC(=O)/C=C/C(=O)O [4-oxo-2-pentenoic acid]
doses at which viability of AREc32 cells was not affected (AREc32 cells): lower than 70 μM
Nrf2 activation (Nrf2): strongly activate Nrf2 in a dose dependent manner
inhibition of NF-κB activity (NF-κB; HT-29 clone 34 cells stimulated with LPS (FIG. 5)): inhibits NF-κB activity in a dose dependent manner
NF-κB activity (SEAP or IL-8 detection) in the absence of LPS (NF-κB; HT-29 clone 34 cells, no LPS, doses tested 3 to 400 μM): no NF-κB activity was observed
doses toxic to cells (THP-1 blue cells): higher than 75 μM
doses showing a decrease in cell viability (HT-29 clone 34 cells): > 50 µM
